The values below come from PMC2904697, “A Screen for Kinetochore-Microtubule Interaction Inhibitors Identifies Novel Antitubulin Compounds” (PLoS ONE, 2010).

In data set [1] the test system is recombinant CLIP-170^488 binding to taxol-stabilized MTs. Kind of data set: CLIP-170^488 binding to taxol-stabilized MTs (specificity control). The settings on record: compound B at 50 µmol/l. The source says:
Figure 2 Compound B prevents the recombinant Ndc80 kinetochore complex from binding to taxol-stabilized microtubules. Effect of compound B (50 µmol/l) on binding of the Ndc80^488 complex to rhodamine-labeled, taxol-stabilized MTs as assayed using inverted wide-field fluorescence microscopy. The scale bar represents 4 µm (A). Structure of compound B; 6-furan-2-yl-3-methyl-4-oxo-4,5,6,7-tetrahydro-1H-indole-2-carboxylic acid (tetrahydro-furan-2-yl)methyl ester (B). Measurement of the IC50 value of compound B using total internal reflection fluorescence microscopy. The scale bar represents 4 µm (C). Compound B (50 µmol/l) prevented MT-associating protein CLIP-170^488, used as a specificity control, from binding to taxol-stabilized MTs. The scale bar represents 4 µm (D). […] The scale bar represents 4 µm (E).
A compound inhibiting the Ndc80^488 complex-MT interaction could act either against the complex or against the MTs. To probe the specificity of compound B toward the Ndc80^488 complex, we examined its ability to inhibit MT binding of recombinant CLIP-170^488, a MT plus-end tracking protein.

For the next data set, the system named is HeLa cells. Put plainly: Ability of the compound to enter cells. The format is cell-based, human. From the text:
During the last twenty-five years antispindle drugs have been used with great success in the fight against cancer. However, as cancer cells are developing resistance against these drugs, there is an urgent need for compounds targeting alternative mitotic targets. As kinetochores orchestrate chromosome segregation and comprise >100 proteins, they are appealing mitosis-specific drug targets. The high antitumor activity of compounds inhibiting kinetochore regulators (Aurora kinase, PLK1) and the kinetochore-associated kinesin CENP-E supports the concept of targeting kinetochore function to eradicate proliferating cells, [9], [19]. The complexity of kinetochores, the lack of insight into intrakinetochore protein-protein contacts and protein-activity relationships, as well as the difficulty to produce kinetochore subunits in large quantities for use in in vitro screens has long hampered the conversion of structural kinetochore components into anticancer drug targets. […] As the Ndc80 complex can be produced recombinantly in high quantity and because the recombinant complex is fully active as shown following injection in cells we focused on this complex to screen for inhibitors of kinetochore-MT binding. […]

Regarding `N#CC(=Cc1ccc(-c2ccc(C(=O)O)cc2)o1)c1nc2ccccc2[nH]1` [compound C, 4-5-2-1H-benzimidazol-2-yl-2-cyano-vinyl-furan-2-yl-benzoic acid], in data set [1], the “Effect on binding of CLIP-170^488 to taxol-stabilized MTs” value was “did not inhibit”. Besides, the Cell entry entry in the data set on HeLa cells was “inability of the compound to enter cells”.
